Experimental data reported in patent US9066958B2 (priority 2006, dated 2015).
Where two headings read alike, the source gives them in different places.

What was measured:
[1] = Stability of solvent with storage; assay type: physicochemical
[2] = Stability of vitamin D in vehicle; assay type: physicochemical; conditions: result in words; only cells marked # are direct experimental observation
Excerpt: The liquid has minimal sensory effects i.e. it has minimal smell, taste, or texture i.e. no oily feel. The liquid is biologically natural in the context of breast-feeding, and is safe for infant consumption. The liquid per se is not subject to rancidity or oxidation over the shelf-life of the composition. […] One drop of each liquid was applied onto a nipple to determine whether it would adhere well enough so that no portion of it would drip off in a timeframe of 10 seconds. The results of these experimental observations are presented in Table 1 along with further considerations regarding the parameters desired for this invention.

CC(=O)Oc1c(C)c(C)c2c(c1C)CCC(C)(CCC[C@H](C)CCC[C@H](C)CCCC(C)C)O2 (stereo partly shown) [Eitamin E acetate oil]
Stability of solvent with storage [1]: Stable

CCO [Ethanol]
Stability of vitamin D in vehicle [2]: Solvent | Stability of solvent with storage ([1]; direct experimental observation): Evaporates

O [Water]
Stability of solvent with storage [1]: Stable

Canola oil
Stability of solvent with storage [1]: Oxidizes/

Medium-chain triglyceride
Stability of solvent with storage [1]: Stable

Sesame oil
Stability of solvent with storage [1]: Oxidizes/
